# Experimental data taken from US20080051393A1, “Novel cannabinoids and methods of use” (Eastern Virginia Medical School, priority 2006, published 2008).
# How the values were obtained:
# [1] = target: T1, human CB1 receptor (Homo sapiens, UniProt P21554); experiment: CB1 receptor binding, [3H]CP55,940 displacement; conditions: HEK-293 membranes, means ± SE, N = 3
# T1 construct: expressed in transfected cells; host or cells: HEK-293
# Experimental: (§1) Membrane Preparations. HEK-293 cells stably expressing the human CB1 receptor were cultured in DMEM with 10% FBS and Chinese Hamster Ovary (CHO) cells stably expressing the human CB2 receptor were cultured in DMEM with 10% FCS. Cells were harvested by replacement of the media with cold phosphate-buffered saline containing 1 mM EDTA followed by centrifugation at 1000×g for 5 min at 4° C. The pellet was resuspended in 50 mM Tris-HCl containing 320 mM sucrose, 2 mM EDTA and 5 mM MgCl2 (pH 7.4) (centrifugation buffer), then centrifuged at 1000×g for 10 min at 4° C. and the resulting supernatant was saved. This process was repeated twice. The supernatant fractions were combined and centrifuged at 40,000×g for 30 min at 4° C. The resulting P2 pellet was resuspended in assay buffer (50 mM Tris-HCl (pH 7.4), 3 mM MgCl2, 0.2 mM EGTA, and 100 mM NaCl) and protein was measured. Membranes were stored at −80° C. until use.
# (§2) Receptor Binding. Membrane homogenates (50 μg) were incubated with 0.5 nM [^3H]CP55,940 in the presence of varying concentrations (1 nM-10 μM) of test compounds in 0.5 ml of buffer containing BSA (5 mg/ml). Non-specific binding was measured in the presence of 1 μM CP55,940. The assay was incubated at 30° C. for 1 hr and terminated by addition of ice cold 50 mM Tris-HCl+BSA (1 mg/ml) (pH 7.4) followed by filtration under vacuum through Whatman GF/B glass fiber filters with 3 washes with cold Tris buffer. Bound radioactivity was determined by liquid scintillation spectrophotometry at 50% efficiency after extraction by shaking samples for 30-60 min with Budget-Solve scintillation fluid. Data are reported as the mean ±SEM of three experiments, each performed in triplicate. Ki values were calculated from displacement data using EBDA (Equilibrium Binding Data Analysis; BIOSOFT, Milltown, N.J.).
# [2] = tested on: ICR mice; experiment: Tetrad model: relative immobility (RI), ring-immobility test; assay type: in vivo; conditions: Mus musculus, iv, 40 min; i.v., ring immobility 40 min after injection; read-out: R.I. ED50
# Text: (§3) ICR Mice and Materials. Male ICR mice (Harlan Laboratories, Indianapolis, Ind.) weighing between 24 to 30 g were used in all experiments. Mice were maintained on a 14:10-hr light/dark cycle with food and water available ad lib. All test groups consisted of 6 to 12 mice. Analogs dissolved in a vehicle consisting of ethanol, emulphor and saline in a ratio of 1:1:18. All chemicals for receptor binding studies were purchased from Sigma (St. Louis, Mo.) except the following: Dulbeco's modified Eagle's medium (DMEM) from GIBCO BRL (Grand Island, N.Y.), Whatman GF/B glass fiber filters from Fischer Scientific (Pittsburg, Pa.), fetal calf serum (FCS) and fetal bovine serum (FBS) from HyClone Laboratories (Logan, Utah) and Budget-Solve scintillation fluid from RPI Corp. (Mount Prospect, Ill.).
# Rectal temperature was measured 30 min after the i.v. injection. The change in rectal temperature (Δ° C.) following analog administration was calculated for each animal. Relative immobility (catalepsy) was measured 40 min after the i.v. injection by the ring-immobility test. Mice were placed on a ring 5.5 cm in diameter attached to a stand at a height of 16 cm. The amount of time the mice spent motionless on the ring during the 5-minute procedure was measured, with the criteria of immobility being defined as the absence of all voluntary movements, including whisker movement, but excluding respiration. The percent immobility was calculated as: % immobility=[time immobile (sec)]/[length of session (sec)]×100. Mice that fell from the ring or actively jumped were allowed five attempts. After the fifth escape these mice were removed from the ring and not included in the calculations. Data were collected from 6-12 mice for each condition tested.
# (§4) Data analysis. Based on data obtained from numerous previous in vivo studies with cannabinoids, maximal cannabinoid effects in each in vivo pharmacological procedure were estimated as follows: 90% inhibition of spontaneous activity, 100% MPE in the tail flick procedure, and −6° C. change in rectal temperature. Means and standard error (S.E.) were calculated for % MPE, number of photocell disruptions, % ring immobility and Δ° C. Analysis of variance (ANOVA) was used to determine significant differences between control and treatment groups followed by Dunnett's t-test post-hoc analysis. Statistical analysis was performed using StatView, version 5.0 (SAS Institute, Cary, N.C.). Significance was defined as a “p”<0.05. ED50's were defined as the dose at which half maximal effect occurred. For drugs that produced one or more cannabinoid effect, ED50's were calculated separately using least-squares linear regression on the linear part of the dose-effect curve for each measure in the mouse tetrad, plotted against log10 transformation of the dose.
# [3] = target: T2, human CB2 receptor (Homo sapiens, UniProt P34972); experiment: CB2 receptor binding, [3H]CP55,940 displacement; conditions: CHO membranes, means ± SE, N = 3
# T2 construct: expressed in transfected cells; host or cells: CHO
# T2 sequence (P34972 whole entry): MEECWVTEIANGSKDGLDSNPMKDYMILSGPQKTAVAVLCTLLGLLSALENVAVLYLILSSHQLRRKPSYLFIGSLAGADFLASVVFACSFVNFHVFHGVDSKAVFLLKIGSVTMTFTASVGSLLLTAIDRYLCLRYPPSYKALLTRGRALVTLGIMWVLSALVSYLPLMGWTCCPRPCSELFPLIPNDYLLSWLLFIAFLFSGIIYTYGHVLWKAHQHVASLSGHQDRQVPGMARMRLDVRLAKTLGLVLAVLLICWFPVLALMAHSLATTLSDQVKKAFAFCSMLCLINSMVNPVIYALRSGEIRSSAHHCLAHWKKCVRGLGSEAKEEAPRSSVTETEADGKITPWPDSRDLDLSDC
# Experimental: as §1, §2
# [4] = tested on: ICR mice; experiment: Tetrad model: antinociception in the tail-flick procedure (TF); assay type: in vivo; conditions: Mus musculus, iv, 20 min; i.v., tail-flick 20 min after injection; read-out: T.F. ED50
# Text: as §3
# (§5) Behavioral Evaluations. All animals were allowed to acclimate to the observation room overnight. Behavioral effects were assessed in the tetrad model to measure potency in decreasing spontaneous activity (SA), antinociception [tail-flick procedure, TF], rectal temperature (RT) and relative immobility (RI) catalepsy. The baselines for tail-flick latency (2-4 sec) and rectal temperature were determined prior to i.v. injections. Baseline rectal temperatures were measured using a telethermometer and a thermometer probe inserted to 25 mm (Yellow Springs Instrument Co., Yellow Springs, Ohio). The mice treated i.v. with an analog were placed in individual photocell activity chambers 5 min later. Spontaneous activity wasp monitored for 10 min in a Digiscan Animal Activity Monitor (Omnitech Electronice, Inc., Columbus, Ohio) as measured by the number of interruptions of 16 photocell beams per chamber. The total number of beam interruptions during the 10-min period was determined and presented as total counts. The mice were then assessed at 20 min following the i.v. injection for antinociception using the tail-flick reaction time to a heat stimulus. A 10-sec maximum latency was used in order to avoid tail injury. The results are presented as % MPE and are calculated as follows: % MPE=[(test latency-control latency)/(10 sec−control latency)]×100.
# as §4
# [5] = tested on: ICR mice; experiment: Tetrad model: inhibition of spontaneous activity (SA); assay type: in vivo; conditions: Mus musculus, iv, spontaneous activity 5-15 min after injection; read-out: S.A. ED50
# Text: as §3, §5, §4
# [6] = tested on: retinal ganglionic cells (RGC); experiment: Rat NMDA model: retinal flat mounts, RGC count; assay type: in vivo; conditions: NMDA treatment only
# Experimental: Rat NMDA Model. To mimic glaucomatous damage to the retina without a potentially confounding effect on IOP, retinal damage was induced by NMDA in a rat model. Following baseline measurements, e.g. IOP, ERG, slit lamp, fundus photography, heart rate and blood pressure, N-methyl D-aspartate (NMDA, 2 μl of 10 mM) was injected intravitreally to induce RGC damage. […] For positive identification, a hand scanner was used each time the rat was examined. This was necessary since the examiners will be masked as to treatment group. Treatment groups consisted of either NMDA only (control), O-1812 (0.1%) or O-2545 (0.1%), O-1812 (0.1%)+SR-141716 (2 mM), O-2545 (0.1%)+SR-141716 (2 mM), O-1812 (0.1%)+SR-144258 (2 mM) and O-2545 (0.1%)+SR-144258 (2 mM). All experiments were conducted in accordance with the policies of the Institutional Animal Care and Use Committee and the ARVO policy on use of animals in experiments. A minimum of two baseline ERG measurements was recorded 1 wk prior, 1 wk and 2 wk post injection. At the end of each experiment, rats were sacrificed and their eyes were preserved for histological assessment of effects on the retina and optic nerve.
# Histology. For retinal flat mounts, retinas were dissected from formalin fixed whole eyes, mounted on superfrost glass slides, stained with hematoxylin and eosin and digitally photographed. For analysis, the retina was divided into four quadrants. A minimum of five 50 μm^2 sections per quadrant were used to count cell number. The cell sections were selected to be equidistant from the optic cup for all quadrants. For optic nerve experiments, the optic nerve was dissected at the margin of the optic disk and embedded in cryo media. Sections of 10 μm thickness were cut and mounted on superfrost glass slides and stained with hematoxylin and eosin. The slides were digitally photographed.
# [7] = tested on: IOP in a rat glaucoma model; experiment: Combination therapy: IOP in a rat glaucoma model; assay type: in vivo, Sprague Dawley rats
# Text: (§6) Rat Glaucoma Model. Compared to acute studies, a chronic rat model of glaucoma was generated. The rats were made glaucomatous by ligating three vortex veins (Hosseini, A. et al. (2006) Chronic topical administration of WIN-55-212-2 maintinas a reduction in IOP in a rat glaucoma model without adverse effects. Exp. Eye Res. 82(5):753-9). More specifically, ocular hypertension was induced in Sprague-Dawley rats by ligating 3 of 4 episcleral veins of the right eye using 9.0 nylon sutures under anesthesia with 3 mg/Kg acepromazine and 20 mg/Kg ketamine. Within 6 wk, IOP increased by at least 5 mm Hg in the operated eye. This intervention produced at least a 30% increase in IOP in the operated eye and lasted for up to 60 weeks. During this time, a 30% loss of retinal function was documented by ERG. […] Thus, the model accurately mimics the progressive damage that occurs in patients with glaucoma.
# (§7) Measurements of Intraocular Pressure. IOP elevation was measured under mild sedation using a calibrated Goldmann tonometer modified for rats. Three determinations were averaged for each eye. To account for diurnal variation, all IOP's were measured between 11 am and 1 pm during the daily trough period.
# Combination Therapy. Since cannabinoids and timolol, which are both known to reduce IOP, have different mechanisms of action, there is potential for a synergistic effect. The combination of timolol and a synthetic cannabinoid (WIN55 212-2, O-1812, or O-2545) to reduce IOP in a chronic rat model of ocular hypertension was examined. Surgical ligation of three of the four episcleral veins in one eye of Sprague Dawley rats caused a long lasting (>44 week) increase in IOP. IOP was measured by Goldmann tonometry at baseline (−30), 0, 30, 60 and 120 min, as was heart rate and blood pressure. For combination therapy, after baseline IOP measurement, timolol 0.5% was applied topically followed 30 min later by WIN55 212-2 1.0%, O-1812 1.0%, or O-2545 1.0%. In another experiment, O-1812 1.0% and O-2545 1.0% were administered simultaneously. An analysis for ocular irritation was performed by slit lamp examination (SLE) at baseline and 150 min.
# [8] = tested on: IOP in a rat glaucoma model; experiment: IOP after topical application in chronic rat glaucoma model; assay type: in vivo, Sprague-Dawley rats; conditions: 1.0% topical
# Text: as §6, §7
# Therapeutic Regimen. For IOP Measurements (Topical application) Baseline IOP, heart rate, blood pressure and normal ocular anatomy were documented prior to drug administration. The drugs WIN 55-212-2 (0.1%, 1.0%), O-1812 (0.01%, 0.1%, 1.0%), O-2545 (0.1%, 1.0%) were all dissolved in Tocrisolve™ (vehicle). IOP, heart rate, and blood pressure were measured prior to and after 30, 60 and 120 min after topical administration. Contralateral eyes served as vehicle treated controls.
# T1 sequence (P21554 whole entry): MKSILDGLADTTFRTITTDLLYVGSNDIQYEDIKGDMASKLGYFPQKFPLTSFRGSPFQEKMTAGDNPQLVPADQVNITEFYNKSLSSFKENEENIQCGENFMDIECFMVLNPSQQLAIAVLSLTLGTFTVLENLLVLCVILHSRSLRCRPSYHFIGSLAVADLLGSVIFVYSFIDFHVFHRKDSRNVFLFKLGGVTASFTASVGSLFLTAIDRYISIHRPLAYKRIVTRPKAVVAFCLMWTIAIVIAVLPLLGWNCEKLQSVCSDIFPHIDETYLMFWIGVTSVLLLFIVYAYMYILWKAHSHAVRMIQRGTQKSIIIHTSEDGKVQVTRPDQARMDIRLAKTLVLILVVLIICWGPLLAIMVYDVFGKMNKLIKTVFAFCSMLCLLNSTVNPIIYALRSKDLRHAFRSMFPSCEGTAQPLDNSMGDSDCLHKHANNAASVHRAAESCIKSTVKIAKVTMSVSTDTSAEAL
SMILES,Ki [1] [µM],ED50 [2] [mg/kg],Ki [3] [µM],ED50 [4] [mg/kg],ED50 [5] [mg/kg],Reduction of RGC cell density [6] [%],"IOP at 120 min (% Baseline) ([7]; 0.5% topical alone, 120 min)","Time for which IOP was significantly decreased ([7]; timolol alone, prior experiments in this model) [min]",Time for which significant IOP reduction was maintained [8],Effect on IOP at 30 min ([8]; 30 min),IOP after 60 min (% of Baseline) ([8]; 60 min)
C[C@H](CO)NC(=O)CCC/C=C\C/C=C\C/C=C\C/C=C\C(C)(C)CCCCn1cccn1 [Compound O-2954],0.127 ± 0.00284,0.57,0.301 ± 0.0356,0.19,0.14,,,,,,
C[C@H](CO)NC(=O)CCC/C=C\C/C=C\C/C=C\C/C=C\C(C)(C)CCCCn1cncn1 [Compound O-2955],0.298 ± 0.0339,2.21,0.215 ± 0.0405,1.94,2.03,,,,,,
C[C@H](CO)NC(=O)CCC/C=C\C/C=C\C/C=C\C/C=C\C(C)(C)CCCCN1CCOCC1 [Compound O-4316],0.00388 ± 0.00022,0.03,0.0224 ± 0.00043,0.04,0.11,,,,,,
C[C@H](CO)NC(=O)CCC/C=C\C/C=C\C/C=C\C/C=C\C(C)(C)CCCCn1ccnc1 [Compound O-4368],0.0905 ± 0.005,0.25,0.153 ± 0.005,0.29,0.68,,,,,,
C[C@H](CO)NC(=O)CCC/C=C\C/C=C\C/C=C\C/C=C\C(C)(C)CCCCN1CCCCC1 [Compound O-4386],0.0928 ± 0.0022,0.7,0.226 ± 0.024,0.55,0.79,,,,,,
C[C@H](CO)NC(=O)CCC/C=C\C/C=C\C/C=C\C/C=C\C(C)(C)CCCCN1CCCC1 [Compound O-4388],0.0994 ± 0.0059,0.84,0.404 ± 0.039,0.38,0.42,,,,,,
"CN[C@H](CC(=O)O)C(=O)O [NMDA, N-methyl D-aspartate, reference compound]",,,,,,49,,,,,
"CC(C)(C)NC[C@H](O)COc1nsnc1N1CCOCC1 [Timolol, timolol]",,,,,,,91.5 ± 10.2,30,,,
"Cc1c(C(=O)c2cccc3ccccc23)c2cccc3c2n1[C@@H](CN1CCOCC1)CO3 [WIN 55-212-3, reference compound]",,,,,,,,,up to 120 min,significantly lowered,86.5 ± 2.5 % of Baseline
